According to US10238616B2, “Immunomodulator” (WAKUNAGA PHARMACEUTICAL CO., LTD., priority 2014, dated 2019):

Key:
IgA production [1] = assay: Promoting effect of IgA production (in vitro) <2>; type: cell-based, mouse; conditions: spleen lymphocytes of female C57BL/6N mice, 0.03, 0.1 and 0.3 mM, three days at 37° C.
Experimental: (§1) Cells for the biological activity evaluation were prepared as follows. Female C57BL/6N mice for tests were purchased from CLEA Japan, Inc. After the purchase, the mice were acclimated for a week, and then sacrificed and the spleens were taken out. The excised spleens were crushed and passed through a mesh to collect lymphocytes, which were used as the cells for the evaluation test.
(§2) Mouse IgA Quantitation Kit manufactured by Bethyl laboratories, Inc was purchased and the amount of IgA produced was measured. The wash solution or culture supernatant to be measured was placed in a 96-well plate coated with an anti-IgA antibody. After adding various reaction reagents, the absorbance was measured by using a plate reader.
The lymphocytes obtained from the cells for the evaluation test of (2) above were prepared at 5×10^6 cells/mL with a 10% serum-containing medium and inoculated into a 48-well plate at 200 μL each.
To the cells, chemically synthesized cis-S-1-propenycysteine and trans-S-1-propenycysteine, and S-1-propenycysteine (a cis/trans mixture) prepared in Production Example 2 were added at concentrations of 0.03, 0.1, and 0.3 mM, followed by culturing at 37° C. for three days. Subsequently, the amount of IgA produced in the culture supernatants was measured by ELISA.

IgA production [2] = assay: Promoting effect of IgA production (in vitro) <1>; type: cell-based, mouse; conditions: spleen lymphocytes of female C57BL/6N mice, 0.1 mM, three days at 37° C., compared with other sulfur-containing amino acid compounds
Experimental: as §1, §2
The lymphocytes obtained from the cells for the evaluation test of (2) above were prepared at 1×10^6 cells/mL with a 10% serum-containing medium and inoculated into a 24-well plate at 1 mL each, or prepared at 1×10^6 cells/200 μL and inoculated into a 48-well plate at 200 μL each. Subsequently, of the samples prepared in (1) above, those prepared in (1) (a) above were appropriately diluted and added to the 24-well plate so that the final concentration was 4 mg/mL, and those prepared in (1) (b) was added to the 48-well plate at 0.1 mM. After culturing for three days at 37° C., the supernatants were collected and the amount of IgA was measured by ELISA.

IL-6 production [3] = assay: Inhibitory effect on IL-6 production under LPS stimulation (in vitro) <1>; type: cell-based, mouse; conditions: spleen lymphocytes, 1 μg/mL Escherichia coli 055-derived LPS, 0.1 mM
Experimental: as §1
(§3) Mouse IL-6 ELISA Ready-SET-Go! Kit manufactured by eBioscience was purchased and the amount of IL-6 produced was measured. The culture supernatant to be measured was placed in a 96-well plate coated with an anti-IL-6 antibody. After adding various reaction reagents, the absorbance was measured by using a plate reader.
(§4) The lymphocytes obtained from the cells for the evaluation test of (2) above were prepared at 1×10^6 cells/mL with a 10% serum-containing medium and inoculated into a 24-well plate at 1 mL each. Subsequently, Escherichia coli 055-derived lipopolysaccharides (LPS) were added at 1 μg/mL, and then the samples prepared in (1) (b) above were added at 0.1 mM, followed by culturing at 37° C. for 24 hours or three days. Upon completion of culture, the supernatants were collected and the amounts of IL-6 and IgA were measured by ELISA.

IgA = assay: Promoting effect of IgA production (in vivo) <1>: IgA in intestinal lavage fluids; set-up: species or system mouse; conditions: female C57BL/6N mice, oral administration for five days, compared with water administration group
Experimental: (§5) Animals for the biological activity evaluation were reared as follows. Female C57BL/6N mice for tests were purchased from CLEA Japan, Inc. After the purchase, the mice were acclimated for a week, and then used as the animals for the evaluation test.
as §2
The animals for the evaluation test of (3) above were orally administered with the sample prepared in (1) (b) above for five days, and then sacrificed and the small intestines were removed. Phosphate buffer (5 mL) was passed through the small intestines and the contents of the small intestines and the lavage fluids collected. The collected products were combined and centrifuged, and the amount of IgA in the resulting supernatant was quantified by ELISA.

IgA-producing B cells [4] = assay: Promoting effect of IgA production (in vivo) <3>: IgA-producing B cells in the peritoneal cavity; set-up: species or system mouse; conditions: female C57BL/6N mice, oral administration for five days, compared with water administration group
Experimental: as §5
The animals for the evaluation test of (3) above were orally administered with the sample prepared in (1) (b) above for five days. The animals were sacrificed and a laparotomy was performed without breaking the peritoneum. Then, 3 mL of 5% FBS-containing Hank's Balanced Salt Solution was placed in a 5 mL syringe and injected into the peritoneal cavity using a 27G needle. Then, the peritoneum was pressed with fingers to spread the injected solution evenly throughout the peritoneal cavity, followed by collecting the intraperitoneal solution using a 18G needle. The intraperitoneal solution thus collected was centrifuged at 1,500 rpm for five minutes. The resulting supernatant was removed and peritoneal cells were collected. […] Upon completion of treatment, 1×10^4 lymphocytes were analyzed by using a flow cytometer to count the number of IgA-producing B cells which reacted to the anti-mouse CD45 antibody (B220) and the anti-mouse immunoglobulin A antibody.

IgA-producing B cells [5] = assay: Promoting effect of IgA production (in vivo) <2>: IgA-producing B cells in Peyer's patches; set-up: species or system mouse; conditions: female C57BL/6N mice, oral administration for five days, compared with water administration group
From the text: as §5
The animals for the evaluation test of (3) above were orally administered with the sample prepared in (1) (b) above for five days, and then sacrificed. The small intestines were removed, from which Peyer's patches were collected. The Peyer's patches were ground, to which Collagenase D was added to give a final concentration of 1 mg/mL and DNAase I was added to give a final concentration of 20 μg/mL. Treatment was continued for 30 minutes while shaking at 37° C., followed by centrifugation at 1,500 rpm. The resulting supernatant was removed. Then, 2 mL of 5% FBS-containing Hank's Balanced Salt Solution containing 5 mM EDTA was added, followed by treatment for five minutes while shaking at 37° C. Upon completion of treatment, the resultant was passed through a 40 μm mesh to remove tissue pieces and collect lymphocytes. […] Upon completion of treatment, 1×10^4 lymphocytes were analyzed by using a flow cytometer to count the number of IgA-producing B cells which reacted to the anti-mouse CD45 antibody (B220) and the anti-mouse immunoglobulin A antibody.

IgA production [6] = assay: Promoting effect on IgA production under LPS stimulation (in vitro) <1>; type: cell-based, mouse; conditions: spleen lymphocytes, 1 μg/mL Escherichia coli 055-derived LPS, 0.1 mM, compared with no stimulation
Experimental: as §1, §2, §4

IL-6 production [7] = assay: Inhibitory effect on IL-6 production under LPS stimulation (in vitro) <2>; type: cell-based, mouse; conditions: spleen lymphocytes, 3 μg/mL Salmonella-derived LPS, 0.3 mM, 24 hours at 37° C.
Experimental: as §1, §3
The lymphocytes obtained from the cells for the evaluation test of (2) above were prepared at 5×10^6 cells/mL with a 10% serum-containing medium and inoculated into a 48-well plate at 200 μL each. To these cells, chemically synthesized cis-S-1-propenycysteine and trans-S-1-propenycysteine, SAC, and S-1-propenycysteine (a cis/trans mixture) prepared in Production Example 2 were added at a concentration of 0.3 mM in the presence of 3 μg/mL Salmonella-derived lipopolysaccharides (LPS), followed by culturing at 37° C. for 24 hours. Upon completion of culture, the supernatants were collected and the amount of IL-6 was measured by ELISA.

Row | SMILES | amount of IgA produced in culture supernatants (ELISA), FIG. 8 (IgA production [1]) | amount of IgA in culture supernatant (ELISA), FIG. 2 (IgA production [2]) | amount of IL-6 secretion induced by LPS stimulation (ELISA), FIG. 7 (IL-6 production [3]) | amount of IgA in the intestinal lavage fluids (ELISA), FIG. 3 (IgA) | number of IgA-producing B cells in the peritoneal cavity (flow cytometer), FIG. 5 (IgA-producing B cells [4]) | number of IgA-producing B cells in Peyer's patches (flow cytometer), FIG. 4 (IgA-producing B cells [5]) | amount of IgA under LPS stimulation (ELISA), FIG. 6 (IgA production [6]) | IL-6 secretion induced by LPS stimulation (ELISA), FIG. 9 (IL-6 production [7])
1 | CC=CSCC(N)C(=O)O (centres unmarked) [S-1-propenycysteine, S-1-propenylcysteine] | significantly enhanced IgA production | promoted IgA production more strongly than other sulfur-containing amino acid compounds | reduced | increased | increased | increased | higher promoting effect on IgA production than under no stimulation | significantly inhibited IL-6 secretion
2 | C/C=C\SC[C@H](N)C(=O)O [cis-S-1-propenycysteine, cis-S-1-Propenylcysteine] | virtually did not affect IgA production |  |  |  |  |  |  | 
3 | C/C=C/SC[C@H](N)C(=O)O [trans isomer, trans-S-1-Propenylcysteine] | significantly enhanced IgA production |  |  |  |  |  |  | significantly inhibited IL-6 secretion
